# Assay results: patent US4091006A, “Esters of 3-hydroxyindone compounds” (priority 1975, dated 1978)
# Test system: adults and nymphal stages of the two-spotted mite
# Assay: Mite Foliage Spray Test
# Assay type: in vivo, Tetranychus urticae (Koch)
# Settings: 4 days
# From the text: (§1) The test procedures were as follows:
# (§2) Compositions were rated on the basis of percent kill with a rating of 1 indicating no mortality; 3 signifying an approximately 50% mortality and 5 indicating 100% mortality at the indicated dosage.
row,SMILES,Mite Adult rating
1,"CC=CCCCCCCCC(=O)OC1=C(c2c(C)cc(C)cc2C)C(=O)c2ccccc21 [2-(2',4',6'-Trimethylphenyl)-3-(undec-9-enoyloxy)indone]",5 (100% mortality)
2,"CCCCCCCCCCCCCCCCCC(=O)OC1=C(c2c(C)cc(C)cc2C)C(=O)c2ccccc21 [2-(2',4',6'-Trimethylphenyl)-3-(octadecanoyloxy)indone]",5 (100% mortality)
3,"Cc1cc(C)c(C2=C(OC(=O)OC(C)C)c3ccccc3C2=O)c(C)c1 [2-(2',4',6'-Trimethylphenyl)-3-(Isopropoxycarbonyloxy)indone]",5 (100% mortality)

# Test system: Bean
# Assay: Phytotoxicity, bean
# Settings: 2500 ppm, 10 days
row,SMILES,"Phytotoxicity Rating, Bean"
1,"CC=CCCCCCCCC(=O)OC1=C(c2c(C)cc(C)cc2C)C(=O)c2ccccc21 [2-(2',4',6'-Trimethylphenyl)-3-(undec-9-enoyloxy)indone]",2
2,"CCCCCCCCCCCCCCCCCC(=O)OC1=C(c2c(C)cc(C)cc2C)C(=O)c2ccccc21 [2-(2',4',6'-Trimethylphenyl)-3-(octadecanoyloxy)indone]",1

# Test system: eggs of the two-spotted mite
# Assay: Fumigant toxicity, Method 1 (deposit in pie plate)
# Assay type: in vivo
# Settings: deposit approx. 160 μg per square cm, 4 days
# Description: (§3) Two methods were used to evaluate fumigant properties:
# Method 1: Fifty mg. of each compound were dissolved in 5 ml. of acetone and poured into a 20 cm. (bottom diameter) Pyrex No. 210 pie plate. The acetone was allowed to evaporate leaving a deposit of approximately 160 μg. per square cm. The plate was then placed in the bottom of a 50 pound metal lard container (about 30 cm. in diameter and 34 cm. high). Two excised bean plants, held in a 250 ml. Erlenmeyer flask containing 100 ml. of tap water and infested with eggs of the two-spotted mite, were placed in the center of the pie plate. The container was held in the insectary (temperature 80±5° F., 50±5% R. H.) for four days before mortality determinations were made.
row,SMILES,Fumigant Toxicity Method 1
1,"CC=CCCCCCCCC(=O)OC1=C(c2c(C)cc(C)cc2C)C(=O)c2ccccc21 [2-(2',4',6'-Trimethylphenyl)-3-(undec-9-enoyloxy)indone]",1
2,"CCCCCCCCCCCCCCCCCC(=O)OC1=C(c2c(C)cc(C)cc2C)C(=O)c2ccccc21 [2-(2',4',6'-Trimethylphenyl)-3-(octadecanoyloxy)indone]",1
3,"Cc1cc(C)c(C2=C(OC(=O)OC(C)C)c3ccccc3C2=O)c(C)c1 [2-(2',4',6'-Trimethylphenyl)-3-(Isopropoxycarbonyloxy)indone]",5 (80-100% control)

# Test system: Corn
# Assay: Phytotoxicity, corn
# Settings: 2500 ppm, 10 days
row,SMILES,"Phytotoxicity Rating, Corn"
1,"CC=CCCCCCCCC(=O)OC1=C(c2c(C)cc(C)cc2C)C(=O)c2ccccc21 [2-(2',4',6'-Trimethylphenyl)-3-(undec-9-enoyloxy)indone]",2
2,"CCCCCCCCCCCCCCCCCC(=O)OC1=C(c2c(C)cc(C)cc2C)C(=O)c2ccccc21 [2-(2',4',6'-Trimethylphenyl)-3-(octadecanoyloxy)indone]",1

# Test system: egg of the two-spotted mite
# Assay: Mite Ovicide Test
# Assay type: in vivo, Tetranychus urticae (Koch)
# Settings: spray on eggs, 4 days
# From the text: as §1
# The plants were allowed to dry thoroughly.
# as §2
row,SMILES,Mite Ova rating
1,"CC=CCCCCCCCC(=O)OC1=C(c2c(C)cc(C)cc2C)C(=O)c2ccccc21 [2-(2',4',6'-Trimethylphenyl)-3-(undec-9-enoyloxy)indone]",5 (100% mortality)
2,"CCCCCCCCCCCCCCCCCC(=O)OC1=C(c2c(C)cc(C)cc2C)C(=O)c2ccccc21 [2-(2',4',6'-Trimethylphenyl)-3-(octadecanoyloxy)indone]",5 (100% mortality)
3,"Cc1cc(C)c(C2=C(OC(=O)OC(C)C)c3ccccc3C2=O)c(C)c1 [2-(2',4',6'-Trimethylphenyl)-3-(Isopropoxycarbonyloxy)indone]",5 (100% mortality)

# Test system: egg forms of the two-spotted mite
# Assay: Fumigant toxicity, Method 2 (treated plants near untreated infested plants)
# Assay type: in vivo
# Settings: 500 ppm dip, 4 days
# Description: as §3
# Method 2: Excised bean plants infested with egg forms of the two-spotted mite were dipped in an aqueous preparation (500 ppm) of the test compound. The treated plants were transferred to 250 ml. Erlenmeyer flasks containing 100 ml. of tap water. Four flasks holding treated plants were evenly spaced around a similar flask in which were placed untreated mite-infested plants so that the leaves of the treated foliage were in close proximity (1-3 inches) to the untreated plants. Four days later mortality determinations were made.
row,SMILES,Fumigant Toxicity Method 2
1,"CC=CCCCCCCCC(=O)OC1=C(c2c(C)cc(C)cc2C)C(=O)c2ccccc21 [2-(2',4',6'-Trimethylphenyl)-3-(undec-9-enoyloxy)indone]",1
2,"CCCCCCCCCCCCCCCCCC(=O)OC1=C(c2c(C)cc(C)cc2C)C(=O)c2ccccc21 [2-(2',4',6'-Trimethylphenyl)-3-(octadecanoyloxy)indone]",1
3,"Cc1cc(C)c(C2=C(OC(=O)OC(C)C)c3ccccc3C2=O)c(C)c1 [2-(2',4',6'-Trimethylphenyl)-3-(Isopropoxycarbonyloxy)indone]",3

# Test system: Perennial rye grass, crabgrass, red root pigweed, mustard
# Assay: Preliminary Herbicide Seed Germination Test
# Settings: rating/maximum 20: 100 ppm only, four species, each rated 1 (no injury) to 5 (no seedlings emerged)
# From the text: The thus-prepared stock suspension contained 0.5 percent by weight of compound. The test concentrations employed in the tests described hereinbelow were obtained by diluting the stock suspension with water. The test procedures were as follows:
# The following seeds were used in this test:
# Crabgrass -- Digitaria san-
# Mustard -- Brassica pincea var.
# Each of above mixtures is rolled separately in 5 gallon containers for approximately one-half hour on ball mill to insure uniform mixing of seeds and soil. For each compound four 3-inch pots are filled with soil to within 11/2 inches of top of pots. To 2 of these pots are added 70 cc. of Mixture I. To the remaining 2 pots are added 70 cc. of Mixture II. The seed-soil mixture is tamped firmly, and the pots are removed to the greenhouse and watered lightly. About 2 hours after planting, 25 milliliters of the test formulation were added to each of 2 pots for each soil-seed mixture; i.e., one replicate of each seed mixture per concentration. An equal volume of a water solution containing acetone and an emulsifier in the same concentration as the herbicidal mixture but without the candidate herbicide is also added to each of the soil-seed mixtures. These pots are used as check or control units. The test compounds are formulated by standard procedure of solution in acetone, addition of an emulsifier, and dilution with water. Tests were conducted on all compositions at low concentration (100 ppm.). Certain compositions were also tested at high concentration (1000 ppm). The pots were held in the greenhouse and watered lightly until results were taken. Ten to twelve days after application of chemical, injury is noted for each species by comparing treated vs. untreated pots. Ratings are made at both the high and the low concentrations (1000 ppm and 100 ppm) according to the following designations:
# 4 = few seedlings emerged and/or very severe stunting
# 3 = moderate reduction in stand and/or moderate stunting
# 2 = very slight reduction in stand and/or slight stunting
# 1 = no injury; seedlings appear no different with respect to stand or growth than untreated controls
# Accordingly, the maximum rating for one test seed species tested at both high and low concentration is 10 and the maximum possible total preemergence rating is 40 (10 for each of the four test seed species). […] In some tests the crabgrass experiment was omitted. In these tests the maximum total rating for species tested at both high and low concentrations is 30 and 15 for species tested only at low concentrations.
row,SMILES,Herbicide (total preemergence rating)
1,"CC=CCCCCCCCC(=O)OC1=C(c2c(C)cc(C)cc2C)C(=O)c2ccccc21 [2-(2',4',6'-Trimethylphenyl)-3-(undec-9-enoyloxy)indone]",19/20
2,"CCCCCCCCCCCCCCCCCC(=O)OC1=C(c2c(C)cc(C)cc2C)C(=O)c2ccccc21 [2-(2',4',6'-Trimethylphenyl)-3-(octadecanoyloxy)indone]",19/20
3,"Cc1cc(C)c(C2=C(OC(=O)OC(C)C)c3ccccc3C2=O)c(C)c1 [2-(2',4',6'-Trimethylphenyl)-3-(Isopropoxycarbonyloxy)indone]",18/20

# Test system: Tomato
# Assay: Phytotoxicity, tomato
# Settings: 2500 ppm, 10 days
row,SMILES,"Phytotoxicity Rating, Tomato"
1,"CC=CCCCCCCCC(=O)OC1=C(c2c(C)cc(C)cc2C)C(=O)c2ccccc21 [2-(2',4',6'-Trimethylphenyl)-3-(undec-9-enoyloxy)indone]",2
2,"CCCCCCCCCCCCCCCCCC(=O)OC1=C(c2c(C)cc(C)cc2C)C(=O)c2ccccc21 [2-(2',4',6'-Trimethylphenyl)-3-(octadecanoyloxy)indone]",1

# Test system: Cotton
# Assay: Phytotoxicity, cotton
# Settings: 2500 ppm, 10 days
row,SMILES,"Phytotoxicity Rating, Cotton"
1,"CC=CCCCCCCCC(=O)OC1=C(c2c(C)cc(C)cc2C)C(=O)c2ccccc21 [2-(2',4',6'-Trimethylphenyl)-3-(undec-9-enoyloxy)indone]",1
2,"CCCCCCCCCCCCCCCCCC(=O)OC1=C(c2c(C)cc(C)cc2C)C(=O)c2ccccc21 [2-(2',4',6'-Trimethylphenyl)-3-(octadecanoyloxy)indone]",1
